Data as given in patent US11202807B2, “Bacterial species” (WAGENINGEN UNIVERSITEIT, priority 2016, dated 2021).
In brackets after ≈: the same amount, converted by molar mass. Read-outs that look alike come from different tables or passages of the source.

Test system: strain Pyt^T
Assay: Antibiotic resistance by the Etest method (MIC)
Type: cell-based, Akkermansia glycaniphilus
Settings: for Level of resistance / sensitivity of strain Pyt^T to the antibiotic: EUCAST breakpoint table for Gram-negative anaerobes (Version 5.0); for MIC: read-out: Minimal Inhibitory Concentration (MIC)
Protocol: Antibiotic resistance was determined using the Etest method for both ampicillin and vancomycin (bioMérieux, Marcy l'Étoile, France). The minimal inhibitory concentration (MIC) was determined after 48 hours of incubation. In more detail, strain Pyt^T was grown in mucin media and after reaching stationary phase 100 ul was plated onto BHI plates supplemented with 0.5% (v/v) hog gastric mucin (Type III, Sigma), and 0.05% (w/v) of cysteine-HCL (Sigma-ALdrich). Plates were incubated for 24-48 hours under strictly anaerobic conditions. The level of resistance was determined using the European Committee on Antimicrobial Susceptibility Testing (EUCAST) breakpoint table for interpretation of MICs for Gram-negative anaerobes (Version 5.0, valid from 2015-01-01).

Row | Compound | Level of resistance / sensitivity of strain Pyt^T to the antibiotic (Etest) | MIC (48 h) | MIC (Etest, BHI plates with 0.5% hog gastric mucin and 0.05% cysteine-HCl, strictly anaerobic, read after 48 hours)
1 | O=C(N[C@H](CO)[C@H](O)c1ccc([N+](=O)[O-])cc1)C(Cl)Cl [chloramphenicol] | sensitive |  | 
2 | Cc1ncc([N+](=O)[O-])n1CCO [metronidazole] | sensitive |  | 
3 | CN[C@H](CC(C)C)C(=O)N[C@H]1C(=O)N[C@@H](CC(N)=O)C(=O)N[C@H]2C(=O)N[C@H]3C(=O)N[C@H](C(=O)N[C@H](C(=O)O)c4cc(O)cc(O)c4-c4cc3ccc4O)[C@H](O)c3ccc(c(Cl)c3)Oc3cc2cc(c3O[C@@H]2O[C@H](CO)[C@@H](O)[C@H](O)[C@H]2O[C@H]2C[C@](C)(N)[C@H](O)[C@H](C)O2)Oc2ccc(cc2Cl)[C@H]1O [vancomycin] | relatively resistant | 24 µg/mL (≈ 16.6 µM) | 
4 | CC1(C)S[C@@H]2[C@H](NC(=O)[C@H](N)c3ccccc3)C(=O)N2[C@H]1C(=O)O [ampicillin] | relatively resistant |  | 32 µg/mL (≈ 91.6 µM)
5 | cholistin | sensitive |  | 
